Measurements reported in PMC7563317, “Development of a Cationic Amphiphilic Helical Peptidomimetic (B18L) As A Novel Anti-Cancer Drug Lead” (Cancers, 2020).
Read-outs that look alike come from different tables or passages of the source. Residues, ends and D or L forms follow the SMILES beside them.

B1: BST-2: recombinant BST-2 (MW = 5.832 kDa), extracellular domain, binding partner and control (protein, UniProt Q10589 49-161, looked up)
extracellular domain: NSEACRDGLRAVMECRNVTHLLQQELTEAQKGFQDVEAQAATCNHTVMALMASLDAEKAQGQKKVEELEGEITTLNHKLQDASAEVERLRRENQVLSVRIADKKYYPSSQDSS
modifications: extracellular domain

How the values were obtained:
T47D = settings: 24 h
Method: (§1) Cells were plated at 5000 cells/well (cancer cells) or 10,000 cells/well (PBMCs) in a 96-well plate and allowed to attach for 24 h. Cells were then treated with various concentrations of compounds for the times indicated in the different figures. At each time point, the viability of cells was measured using MTT assay. In brief, each well was treated with 20 µL of MTT reagent (5 mg/mL in 1x DPBS) and incubated at 37 °C for 3 h. After 3 h, 100 µL of MTT solvent (90% Isopropanol, 10% Triton X-and 0.4% 1M HCl) was added to each well and the plate was covered from light while shaking for 20 min. The absorbance of solubilized MTT reagent was measured using spectrophotometer at 590 nm. In some experiments with PBMCs, the ATP assay was used to assess cell viability by following manufacture’s instruction. […] Cells were then incubated at 37 °C for the indicated time points on the figure and then treated with equivalent volume of CellTiter-Glo reagent. The plate was rocked for 10 min and luminescence intensity was read using spectrophotometer.

MCF7-G11-TR1 = settings: 24 h
Method: as §1

MCF7-G11-TR5 = settings: 24 h
Method: as §1

MCF7 = settings: 24 h
Method: as §1

SKBR3 = settings: 24 h
Method: as §1

ZR-75-1 = settings: 24 h
Method: as §1

MDA-MB-231 = settings: 24 h
Method: as §1

MDA-MB-468 = settings: 24 h
Method: as §1

PBMCs = settings: 24 h
Method: as §1

MCF-10a = settings: 24 h
Method: as §1

[1] = test system: recombinant BST-2 (rBST-2); experiment: UV absorbance (230 nm) centrifugal filter binding assay; settings: 2 mg/mL B18L, 1 mg/mL rBST-2, 37 °C 45 min, 3000 NMWL filter, 13,000 rpm 1 h, UV 230 nm
Method: To validate the MD simulation data, we used UV absorbance based assay to assess the binding affinity of B18L to BST-2 (B18L•BST-2). Following incubation of B18L with rBST-2 or controls (B18L alone and rBST-2 alone) at 37 °C for 45 min, each compound or the B18L•BST-2 mixture was placed in centrifugal filters and spun at 13,000 rpm for 1 h (Figure 2I). Absorbance of compounds (i) prior to addition to the filter (input), (ii) on the apical side of the filter (retained), (iii) in the collection tube (flow through) were obtained and converted to compound concentration using the standard curves (Figure 2J).
B18L (MW = 1.683 kDa), the rBST-2 (MW = 5.832 kDa) and the mixture of B18L and rBST-2 (B18L•BST-2) were titrated with UV spectroscopy at 230 nm to obtain the standard curve. 2 mg/mL of B18L and 1 mg/mL of rBST-2 were preincubated at 37 °C for 45 min. 200 μL mixture was then subjected to the ultracentrifuge tube with 3000 NMWL filter and centrifuged at 13,000 rpm for 1 h. Absorbance of the compounds i) before spin designated as input, ii) compounds left on the apical side of the membrane designated as retained and iii) compounds in the basal side of the tube designated as the flow through were measured with UV spectroscopy. The standard curve was used to extrapolate protein concentrations from the absorbance measurements.

Molecule	IC50 (T47D) [µM]	IC50 (MCF7-G11-TR1) [µM]	IC50 (MCF7-G11-TR5) [µM]	IC50 (MCF7) [µM]	IC50 (SKBR3) [µM]	IC50 (ZR-75-1) [µM]	IC50 (MDA-MB-231) [µM]	IC50 (MDA-MB-468) [µM]	IC50 (MCF7; MCF7 (drug-sensitive), MTT) [µM]	IC50 (MDA-MB-468; MDA-MB-468 (Basal A), MTT) [µM]	IC50 (PBMCs) [µM]	IC50 (MCF-10a) [µM]	in the flow-through [1] [%]	retained on the apical side of the filter [1] [%]
CC[C@H](C)[C@H](NC(=O)CN)C(=O)NCC(=O)N[C@@H](CCCCN)C(=O)N[C@@H](C)C(=O)N[C@H](C(=O)N[C@@H](C)C(=O)N[C@@H](CCCCN)C(=O)N[C@@H](C)C(=O)N[C@H](C(=O)N[C@@H](C)C(=O)N[C@@H](CS)C(=O)N[C@H](C(=O)N[C@@H](C)C(=O)N[C@@H](CCCCN)C(=O)N[C@@H](C)C(=O)N[C@H](C(=O)N[C@@H](C)C(=O)O)[C@@H](C)CC)[C@@H](C)CC)[C@@H](C)CC)[C@@H](C)CC [B18I] (H-GIGKAIAKAIACIAKAIA-OH)	> 148	10.8 ± 2	16.1 ± 4.9	16 ± 1.6	18.1 ± 4.7	10.1 ± 1.8	18.6 ± 2.4	16.6 ± 1.5	–	–	–	–	–	–
CC(C)C[C@H](NC(=O)[C@H](C)NC(=O)[C@H](CCCCN)NC(=O)[C@H](C)NC(=O)[C@H](CC(C)C)NC(=O)[C@H](CS)NC(=O)[C@H](C)NC(=O)[C@H](CC(C)C)NC(=O)[C@H](C)NC(=O)[C@H](CCCCN)NC(=O)[C@H](C)NC(=O)[C@H](CCCCN)NC(=O)[C@H](C)NC(=O)[C@H](CCCCN)NC(=O)[C@H](CCC(N)=O)NC(=O)[C@H](Cc1ccccc1)NC(=O)CN)C(=O)N[C@@H](C)C(=O)O [B18KA] (H-GFQKAKAKALACLAKALA-OH)	78.5 ± 20.9	61.8 ± 5.1	56.4 ± 5	61.8 ± 3.9	43.5 ± 11.5	58.9 ± 2	83.7 ± 20.1	136 ± 9.3	–	–	–	–	–	–
CSCC[C@H](NC(=O)[C@@H](NC(=O)[C@@H](NC(=O)[C@H](Cc1c[nH]cn1)NC(=O)[C@H](CC(C)C)NC(=O)[C@H](CS)NC(=O)[C@@H](NC(=O)[C@H](CC(C)C)NC(=O)[C@H](C)NC(=O)[C@H](CCC(N)=O)NC(=O)[C@H](C)NC(=O)[C@H](CCCCN)NC(=O)[C@@H](NC(=O)[C@H](CCCCN)NC(=O)[C@H](CCC(N)=O)NC(=O)[C@H](Cc1ccccc1)NC(=O)CN)C(C)C)[C@@H](C)O)[C@@H](C)O)C(C)C)C(=O)N[C@@H](C)C(=O)O [B18KL] (H-GFQKVKAQALTCLHTVMA-OH; N-terminus and C-terminus assumed)	> 128	> 128	> 128	> 128	> 128	> 128	> 128	> 128	–	–	–	–	–	–
CSCC[C@H](NC(=O)[C@@H](NC(=O)[C@@H](NC(=O)[C@H](Cc1c[nH]cn1)NC(=O)[C@H](CC(N)=O)NC(=O)[C@H](CS)NC(=O)[C@@H](NC(=O)[C@H](C)NC(=O)[C@H](C)NC(=O)[C@H](CCC(N)=O)NC(=O)[C@H](C)NC(=O)[C@H](CCCCN)NC(=O)[C@@H](NC(=O)[C@H](CCCCN)NC(=O)[C@H](CCC(N)=O)NC(=O)[C@H](Cc1ccccc1)NC(=O)CN)C(C)C)[C@@H](C)O)[C@@H](C)O)C(C)C)C(=O)N[C@@H](C)C(=O)O [B18K] (H-GFQKVKAQAATCNHTVMA-OH; N-terminus and C-terminus assumed)	> 131	> 131	> 131	–	–	> 131	> 131	–	> 131	> 131	–	–	–	–
CC(C)C[C@H](NC(=O)CN)C(=O)NCC(=O)N[C@@H](CCCCN)C(=O)N[C@@H](C)C(=O)N[C@@H](CC(C)C)C(=O)N[C@@H](C)C(=O)N[C@@H](CCCCN)C(=O)N[C@@H](C)C(=O)N[C@@H](CC(C)C)C(=O)N[C@@H](C)C(=O)N[C@@H](CS)C(=O)N[C@@H](CC(C)C)C(=O)N[C@@H](C)C(=O)N[C@@H](CCCCN)C(=O)N[C@@H](C)C(=O)N[C@@H](CC(C)C)C(=O)N[C@@H](C)C(=O)O [B18L] (H-GLGKALAKALACLAKALA-OH)	17.5 ± 6.5	6.2 ± 0.8	3.8 ± 0.3	5.9 ± 0.5	7.2 ± 1	5.2 ± 1	7.2 ± 0.8	12.4 ± 1.4	–	–	39.8 ± 3.8	17.2 ± 6.4	–	–
B1	–	–	–	–	–	–	–	–	–	–	–	–	21	78
